Test results as given in patent publication US20220054465A1, “(PYRIDIN-2-YL)AMINE DERIVATIVES AS TGF-BETA R1 (ALK5) INHIBITORS FOR THE TREATMENT OF CANCER” (Nexys Therapeutics, Inc., priority 2018, published 2022).
pIC50: −log10 of the molar value.

Assays:
[1] = test system: HEK-Blue TGFβ cell; assay: HEK-Blue TGFβ cellular reporter gene assay (SEAP readout); assay type: cell-based; conditions: HEK-Blue TGFβ cells stimulated with TGF-β, 22-23 h incubation, SEAP read at 630 nm
How it was run: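 Cells (2.5×10^5 cells/ml suspension) in DMEM with 0.5% heat-inactivated FBS stimulated with TGF-β (6 ng/ml working solution) plus compound at eight 3-fold dilutions for 22-23 h at 37° C. Supernatant SEAP measured with QUANTI-Blue after 30-40 min, absorbance 630 nm; percent inhibition calculated.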

[2] = Tissue exposure (liver and heart) in Balb/c mouse after PO dosing, general PK protocol; assay type: in vivo; conditions: PO (intragastric) 10 mg/Kg, liver and heart tissue 0.5-24 h, LC-MS/MS
Procedure: Comparing AUCliver/AUCheart ratio of selected Examples with clinic compounds Galunisertib and LY3200882. Tissue exposure was measured in Balb/c mouse with PO dosing at 10 mpk. […] See Stauber, et al., J. Clin. Pract., 2014, 4(3), 196.
The Balb/c mice were fasted overnight with free access to drinking water prior to treatment. Compounds were formulated in 0.5% CMC/0.5% Tween 80 with or without 1 eq. of NaOH, and administrated intragastrically at 10 mg/Kg. The liver and heart tissues of mice were collected at time points 0.5, 1, 3, 5, 7, 24 h (2 mice per time point) post dose by first sacrificing the animal by C02 inhalation. After flushing with ice saline and removal of excess water on its surface, the liver and heart tissues were weighed and homogenized in 1:5 volumes (w/v) of water with 20% methanol. Tissue samples were kept at −40˜−20° C. prior to analysis. Concentrations of compounds in the liver and hearts were determined using an established liquid chromatography-tandem mass spectrometry (LC-MS/MS) method. Tissue concentration-time data were processed by linear regression analysis. All pharmacokinetic parameters were calculated using non-compartment model of Pharsight Phoenix 8.0.

[3] = Stauber, et al., J. Clin. Pract., 2014, 4(3), 196; cited from earlier work

| AUCliver/AUCheart [2] | SMILES | pIC50 [1] | Cardiac toxicity [3] |
| --- | --- | --- | --- |
| 13.2 | Cc1cc(Oc2ccnc(Nc3cccc(CCC(=O)O)c3)c2)c(-c2ccccn2)nc1C [Example 1, 3-(3-((4-((5,6-dimethyl-[2,2′-bipyridin]-3-yl)oxy)pyridin-2-yl)amino)phenyl)propanoic acid] | 6.74 |  |
| 60.9 | Cc1cc(Oc2ccnc(Nc3cccc(CCc4nn[nH]n4)c3)c2)c(-c2ccccn2)nc1C [Example 12, N-(3-(2-(2H-tetrazol-5-yl)ethyl)phenyl)-4-((5,6-dimethyl-[2,2′-bipyridin]-3-yl)oxy)pyridin-2-amine] | 6.89 |  |
| 142 | Cc1cc(Oc2ccnc(Nc3cccc(Cc4nnn[nH]4)c3)c2)c(-c2ccccn2)nc1C [Example 16, N-(3-((1H-tetrazol-5-yl)methyl)phenyl)-4-((5,6-dimethyl-[2,2′-bipyridin]-3-yl)oxy)pyridin-2-amine] | 6.41 |  |
| 29.9 | Cc1ccc(Oc2ccnc(Nc3cccc(CCc4nn[nH]n4)c3)c2)c(C)n1 [Example 44, N-(3-(2-(2H-tetrazol-5-yl)ethyl)phenyl)-4-((2,6-dimethylpyridin-3-yl)oxy)pyridin-2-amine] | 6.92 |  |
| 70.6 | Cc1ccc(Oc2ccnc(Nc3cccc(CCc4nn[nH]n4)c3)c2)c(-c2ccccc2)n1 [Example 52, N-(3-(2-(2H-tetrazol-5-yl)ethyl)phenyl)-4-((6-methyl-2-phenylpyridin-3-yl)oxy)pyridin-2-amine] | 7.43 |  |
| 67.7 | Cc1ccc(Oc2ccnc(Nc3cccc(C(C)(C)C(=O)O)c3)c2)c(-c2ccccc2)n1 [Example 70, 2-methyl-2-(3-((4-((6-methyl-2-phenylpyridin-3-yl)oxy)pyridin-2-yl)amino)phenyl)propanoic acid] | 8.15 |  |
| 266 | CC(C)(C(=O)O)c1cccc(Nc2cc(Oc3cn(C4CC4)nc3C3CCOCC3)ccn2)c1 [Example 74] | 6.64 |  |
| 124 | CCc1ccc(Oc2ccnc(Nc3cccc(C(C)(C)C(=O)O)c3)c2)c(C)n1 [Example 81, 2-(3-((4-((6-ethyl-2-methylpyridin-3-yl)oxy)pyridin-2-yl)amino)phenyl)-2-methylpropanoic acid] | 7.51 |  |
| 27.8 | CCc1ccc(Oc2ccnc(Nc3cccc(C(C)(C)C(=O)O)c3)c2)c(-c2ccccc2)n1 [Example 104] | 7.66 |  |
| 183 | CCc1ccc(Oc2ccnc(Nc3cccc(CCc4nn[nH]n4)c3)c2)c(-c2ccccn2)n1 [Example 175, N-(3-(2-(2H-tetrazol-5-yl)ethyl)phenyl)-4-((6-ethyl-[2,2′-bipyridin]-3-yl)oxy)pyridin-2-amine] | 7.36 |  |
|  | COc1cc(CCc2nn[nH]n2)cc(Nc2cc(Oc3cc(C)c(C)nc3-c3ccccn3)ccn2)c1 [Example 178] | 6.68 |  |
|  | Cc1cc(Oc2ccnc(Nc3cc(F)cc(CCc4nn[nH]n4)c3)c2)c(-c2ccccn2)nc1C [Example 179] | 6.77 |  |
|  | Cc1cc(Oc2ccnc(Nc3cc(Cl)cc(CCc4nn[nH]n4)c3)c2)c(-c2ccccn2)nc1C [Example 180] | 7.10 |  |
|  | CCc1cc(Oc2ccnc(Nc3cccc(CCc4nn[nH]n4)c3)c2)c(-c2ccccn2)nc1C [Example 181] | 6.68 |  |
|  | Cc1nc(-c2ccccn2)c(Oc2ccnc(Nc3cccc(CCc4nn[nH]n4)c3)c2)cc1C1CC1 [Example 182] | 6.19 |  |
|  | Cc1nc(-c2ccccn2)c(Oc2ccnc(Nc3cccc(CCc4nn[nH]n4)c3)c2)cc1C(C)C [Example 183] | 6.62 |  |
|  | COc1ccc(Nc2cc(Oc3ccc(C)nc3-c3ccccn3)ccn2)cc1CCc1nn[nH]n1 [Example 184] | 6.48 |  |
|  | CCc1nc(-c2ccccn2)c(Oc2ccnc(Nc3cccc(CCc4nn[nH]n4)c3)c2)cc1C [Example 185] | 7.41 |  |
|  | CCc1nc(C)c(Oc2ccnc(Nc3cc(C)cc(CCc4nn[nH]n4)c3)c2)cc1Cl [Example 186] | 7.29 |  |

| AUCliver/AUCheart [2] | SMILES | pIC50 [1] | Cardiac toxicity [3] |
| --- | --- | --- | --- |
|  | CCc1ccc(Oc2ccnc(Nc3cc(C)cc(CCc4nn[nH]n4)c3)c2)c(C)n1 [Example 187] | 7.57 |  |
|  | Cc1cc(Oc2ccnc(Nc3cccc(CCc4nn[nH]n4)c3)c2)c(C)nc1C [Example 188] | 7.14 |  |
|  | Cc1cc(CCc2nn[nH]n2)cc(Nc2cc(Oc3cc(Cl)c(C)nc3C)ccn2)c1 [Example 189] | 7.62 |  |
|  | CCc1nc(C)c(Oc2ccnc(Nc3cc(C)cc(CCc4nn[nH]n4)c3)c2)cc1C [Example 190] | 8.22 |  |
|  | Cc1ccc(Oc2ccnc(Nc3cccc(CCc4nn[nH]n4)c3)c2)c(C2CCOCC2)n1 [Example 191] | 5.43 |  |
|  | Cc1ccc(Oc2ccnc(Nc3cccc(CC(C)(C)c4nn[nH]n4)c3)c2)c(-c2ccccc2)n1 [Example 192] | 7.19 |  |
|  | c1cc(Cc2nn[nH]n2)cc(Nc2cc(Oc3cn(C4CC4)nc3C3CCOCC3)ccn2)c1 [Example 193] | < 5.00 |  |
|  | Cc1cc(Cc2nn[nH]n2)cc(Nc2cc(Oc3cn(C4CC4)nc3C3CCOCC3)ccn2)c1 [Example 194] | 5.38 |  |
|  | CC(C)(c1cccc(Nc2cc(Oc3cn(C4CC4)nc3C3CCOCC3)ccn2)c1)c1nn[nH]n1 [Example 195] | 5.65 |  |
|  | Cc1cc(Nc2cc(Oc3cn(C4CC4)nc3C3CCOCC3)ccn2)cc(C(C)(C)c2nn[nH]n2)c1 [Example 196] | 6.57 |  |
|  | c1ccc(-c2nn(C3CC3)cc2Oc2ccnc(Nc3cccc(CCc4nn[nH]n4)c3)c2)cc1 [Example 197] | 7.46 |  |
|  | c1ccc(-c2nn(C3CC3)cc2Oc2ccnc(Nc3cccc(Cc4nn[nH]n4)c3)c2)cc1 [Example 198] | 6.96 |  |
|  | Cc1cc(Cc2nn[nH]n2)cc(Nc2cc(Oc3cn(C4CC4)nc3-c3ccccc3)ccn2)c1 [Example 199] | 7.22 |  |
|  | c1ccc(-c2nn(C3CCC3)cc2Oc2ccnc(Nc3cccc(CCc4nn[nH]n4)c3)c2)cc1 [Example 200] | 7.07 |  |
|  | c1ccc(-c2nn(C3CCC3)cc2Oc2ccnc(Nc3cccc(Cc4nn[nH]n4)c3)c2)cc1 [Example 201] | 7.05 |  |
|  | Cc1cc(Cc2nn[nH]n2)cc(Nc2cc(Oc3cn(C4CCC4)nc3-c3ccccc3)ccn2)c1 [Example 202] | 6.92 |  |
| 2.9 | Cc1cccc(-c2nn3c(c2-c2ccnc4ccc(C(N)=O)cc24)CCC3)n1 [Galunisertib, galunisertib, reference compound] |  | limiting factor |
| 1.3 | CC(C)(O)c1cc(Nc2cc(Oc3cn(C4CC4)nc3C3CCOCC3)ccn2)ccn1 [LY3200882, reference compound] |  | cardiac toxicity was identified as the most relevant |
